Several values for one entry are separate records, joined by “and”; a condition that tells them apart may be missing. Identical values can stand only once. Inconclusive results and toxic doses are left out.

For the assay, the system named is P388 leukemia ip, CD2F1 mice, survival T/C. The assay can be described thus: NCI In Vivo Anticancer Drug Screen. Data for tumor model P388 Leukemia (intraperitoneal) in CD2F1 (CDF1) mice. Particulars: endpoint: median survival time, higher = longer survival. A digest of the protocol:
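Mice carrying the transplanted tumor received test compound or vehicle. Survival was recorded in each group, and the value is the treated-group measurement divided by that of the vehicle-treated control group.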

[1] abbreviates: dose: 100.0 mg/kg/injection, schedule: Q01DX001 (ip), vehicle: saline with Tween-80.
[2] abbreviates: dose: 200.0 mg/kg/injection, schedule: Q01DX001 (ip), vehicle: saline with Tween-80.
The mark [3] stands for this setting: dose: 400.0 mg/kg/injection, schedule: Q01DX001 (ip), vehicle: saline with Tween-80.
Where [4] appears, read: dose: 50.0 mg/kg/injection, schedule: Q01DX009 (ip), vehicle: saline.
Setting [5] is: dose: 100.0 mg/kg/injection, schedule: Q01DX009 (ip), vehicle: saline.
Where [6] appears, read: dose: 200.0 mg/kg/injection, schedule: Q01DX009 (ip), vehicle: saline.
The mark [7] stands for this setting: dose: 50.0 mg/kg/injection, schedule: Q01DX005 (ip), vehicle: saline with Tween-80.
[8] abbreviates: dose: 100.0 mg/kg/injection, schedule: Q01DX005 (ip), vehicle: saline with Tween-80.
Where [9] appears, read: dose: 200.0 mg/kg/injection, schedule: Q01DX005 (ip), vehicle: saline with Tween-80.
The mark [10] stands for this setting: dose: 60.0 mg/kg/injection, schedule: Q01DX005 (ip), vehicle: saline with Tween-80.
Where [11] appears, read: dose: 120.0 mg/kg/injection, schedule: Q01DX005 (ip), vehicle: saline with Tween-80.

Take `CC1(C)CC[C@]2(C(=O)O)CC[C@]3(C)C(=CC[C@@H]4[C@@]5(C)C[C@H](O)[C@H](O)[C@@](C)(C(=O)O)[C@@H]5CC[C@]43C)[C@@H]2C1`: the T/C runs as follows: (dose: 1.1 mg/kg/injection, schedule: Q01DX005 (ip), vehicle: Klucel (hydroxypropylcellulose) (HPC)) 91 % of control; (dose: 2.12 mg/kg/injection, schedule: Q01DX005 (ip), vehicle: Klucel (hydroxypropylcellulose) (HPC)) 89 % of control; (dose: 4.25 mg/kg/injection, schedule: Q01DX005 (ip), vehicle: Klucel (hydroxypropylcellulose) (HPC)) 100 % of control and 91 % of control; (dose: 8.5 mg/kg/injection, schedule: Q01DX005 (ip), vehicle: Klucel (hydroxypropylcellulose) (HPC)) 88 % of control and 90 % of control; (dose: 17.0 mg/kg/injection, schedule: Q01DX005 (ip), vehicle: Klucel (hydroxypropylcellulose) (HPC)) 92 % of control and 93 % of control; (dose: 34.0 mg/kg/injection, schedule: Q01DX005 (ip), vehicle: Klucel (hydroxypropylcellulose) (HPC)) 87 % of control.

On to `Cc1ccccc1-c1cc2ccccc2c(N)n1`, for which the T/C is, setting by setting: (dose: 6.25 mg/kg/injection, schedule: Q01DX009 (ip), vehicle: saline with Tween-80) 118 % of control; (dose: 12.5 mg/kg/injection, schedule: Q01DX009 (ip), vehicle: saline with Tween-80) 99 % of control.

Consider `S=C(N/N=C/c1ccc(Cl)s1)NC12CC3CC(CC(C3)C1)C2`, for which the T/C was 87 % of control (dose: 30.0 mg/kg/injection, schedule: Q01DX005 (ip), vehicle: Klucel (hydroxypropylcellulose) (HPC)); 93 % of control (dose: 60.0 mg/kg/injection, schedule: Q01DX005 (ip), vehicle: Klucel (hydroxypropylcellulose) (HPC)); 102 % of control (dose: 120.0 mg/kg/injection, schedule: Q01DX005 (ip), vehicle: Klucel (hydroxypropylcellulose) (HPC)); 100 % of control (dose: 240.0 mg/kg/injection, schedule: Q01DX005 (ip), vehicle: Klucel (hydroxypropylcellulose) (HPC)).

With `Cc1cc2n(n1)C(c1ccccc1)=C(c1ccccc1)OC2(c1ccccc1)c1ccccc1`, the T/C reads like this: (dose: 50.0 mg/kg/injection, schedule: Q04DX002 (ip), vehicle: Klucel (hydroxypropylcellulose) (HPC)) 101 % of control; (dose: 100.0 mg/kg/injection, schedule: Q04DX002 (ip), vehicle: Klucel (hydroxypropylcellulose) (HPC)) 97 % of control; (dose: 200.0 mg/kg/injection, schedule: Q04DX002 (ip), vehicle: Klucel (hydroxypropylcellulose) (HPC)) 97 % of control; (dose: 400.0 mg/kg/injection, schedule: Q04DX002 (ip), vehicle: Klucel (hydroxypropylcellulose) (HPC)) 98 % of control.

As to `S=C(S)n1nc(-c2ccccc2)c(N=Nc2cccc(Cl)c2)c1-c1ccccc1`, the T/C under setting [1] is 91 % of control, the T/C under setting [2] is 91 % of control and the T/C under setting [3] is 113 % of control.

`Cc1cccc(CCl)n1`: the T/C by setting is: under setting [4], 90 % of control; under setting [5], 107 % of control; under setting [6], 105 % of control.

Turning to `c1cn(C23CC4CC(CC(C4)C2)C3)cn1`, the T/C (dose: 25.0 mg/kg/injection, schedule: Q01DX001 (ip), vehicle: Klucel (hydroxypropylcellulose) (HPC)) is 97 % of control.

As for `C=Cn1c([N+](=O)[O-])cnc1/C=C/c1ccc(C(=O)NCCO)cc1`, the T/C runs as follows: (dose: 100.0 mg/kg/injection, schedule: Q04DX002 (ip), vehicle: saline with Tween-80) 96 % of control; (dose: 200.0 mg/kg/injection, schedule: Q04DX002 (ip), vehicle: saline with Tween-80) 93 % of control; (dose: 400.0 mg/kg/injection, schedule: Q04DX002 (ip), vehicle: saline with Tween-80) 93 % of control.

For the molecule `CC(=O)Cn1ccccc1=O`, the T/C was 99 % of control (dose: 60.0 mg/kg/injection, schedule: Q01DX005 (ip), vehicle: saline); 94 % of control (dose: 120.0 mg/kg/injection, schedule: Q01DX005 (ip), vehicle: saline); 99 % of control (dose: 240.0 mg/kg/injection, schedule: Q01DX005 (ip), vehicle: saline).

Turning to `CCOP(=S)(OCC)Oc1ccc([N+](=O)[O-])cc1`, the T/C (dose: 0.06 mg/kg/injection, schedule: Q01DX009 (ip), vehicle: saline) is 102 % of control; the T/C (dose: 0.12 mg/kg/injection, schedule: Q01DX009 (ip), vehicle: saline) is 106 % of control; the T/C (dose: 0.25 mg/kg/injection, schedule: Q01DX009 (ip), vehicle: saline) is 107 % of control; the T/C (dose: 0.5 mg/kg/injection, schedule: Q01DX009 (ip), vehicle: saline) was 100 % of control.

On to `C[Si](C)(C)Cn1ccc2ccccc21`, for which the T/C under setting [7] was 100 % of control, the T/C under setting [8] is 105 % of control and the T/C under setting [9] was 108 % of control.

Turning to `CSc1nc(NC2OC(COC(C)=O)C(OC(C)=O)C(OC(C)=O)C2OC(C)=O)c(N=C(C)C(C)=O)c(=O)n1C` (stereo not given), the T/C runs as follows: under setting [10], 90 % of control; under setting [11], 91 % of control.

As for `O=[n+]1c2ccccc2n([O-])c2cn(-c3ccccc3)c(-c3ccccc3)c21`, the T/C runs as follows: under setting [7], 100 % of control; under setting [8], 100 % of control; under setting [9], 101 % of control.

Take `COc1cc(OC)c(C(=O)/C=C/c2ccncc2)cc1C(=O)O`: the T/C is 114 % of control and 119 % of control (dose: 50.0 mg/kg/injection, schedule: Q01DX009 (ip), vehicle: suspension in saline); 123 % of control and 124 % of control (dose: 100.0 mg/kg/injection, schedule: Q01DX009 (ip), vehicle: suspension in saline).

For the molecule `CN1C(=O)C2C(C(=O)O)C2N(C)C1=O` (stereo not given), the T/C is 99 % of control (dose: 10.0 mg/kg/injection, schedule: Q04DX003 (ip), vehicle: saline); 99 % of control (dose: 100.0 mg/kg/injection, schedule: Q04DX003 (ip), vehicle: saline); 99 % of control and 101 % of control (dose: 200.0 mg/kg/injection, schedule: Q04DX003 (ip), vehicle: saline); 100 % of control and 101 % of control (dose: 400.0 mg/kg/injection, schedule: Q04DX003 (ip), vehicle: saline).

For `C1CCC2CC3NC3CC2C1` (stereo not given), the T/C is 101 % of control under setting [4], 105 % of control under setting [5] and 101 % of control under setting [6].

Regarding `CC(O)CC(O)CC1CCCO1` (stereo not given), the T/C reads like this: (dose: 12.5 mg/kg/injection, schedule: Q01DX005 (ip), vehicle: saline) 98 % of control; (dose: 25.0 mg/kg/injection, schedule: Q01DX005 (ip), vehicle: saline) 97 % of control; (dose: 50.0 mg/kg/injection, schedule: Q01DX005 (ip), vehicle: saline) 98 % of control and 88 % of control.

Regarding `CCCCCCCC/C=C/CC1CCCC(C)N1` (stereo not given) (tested in a mixture with another compound), the T/C (dose: 7.5 mg/kg/injection, schedule: Q01DX005 (ip), vehicle: saline with Tween-80) was 100 % of control; the T/C (dose: 15.0 mg/kg/injection, schedule: Q01DX005 (ip), vehicle: saline with Tween-80) was 100 % of control; the T/C (dose: 30.0 mg/kg/injection, schedule: Q01DX005 (ip), vehicle: saline with Tween-80) was 98 % of control and 102 % of control.

As for `COC1/C=C/OC2(C)Oc3c(C)c(O)c4c(c3C2=O)C(=O)C=C(NC(=O)/C(C)=C\C=C\C(C)C2OC(C)(C)OC(C(C)C(=O)C1C)C2C)C4=O` (stereo not given), the T/C under setting [1] is 103 % of control, the T/C under setting [2] is 95 % of control and the T/C under setting [3] is 100 % of control.

For the molecule `CC(C)C1NC(=O)C2=CN(Cc3ccccc3)C=CC2NC(=O)C(C(C)C)NC(=O)C2=CN(Cc3ccccc3)C=CC2NC1=O` (stereo not given), the T/C is 94 % of control under setting [10]; 100 % of control under setting [11]; 97 % of control (dose: 240.0 mg/kg/injection, schedule: Q01DX005 (ip), vehicle: saline with Tween-80).

As to `Cc1cc(Cl)nc2nc(Cl)ccc12`, the T/C by setting is: under setting [7], 101 % of control; under setting [8], 93 % of control.

`CC1=C(C)C(=O)OC(C(C)(O)C2(O)CC=C3C4CC(O)C5(O)C(O)C=CC(=O)C5(C)C4CCC32C)C1` (stereo not given): the T/C was 105 % of control (dose: 7.75 mg/kg/injection, schedule: Q01DX005 (ip), vehicle: Klucel (hydroxypropylcellulose) (HPC)); 105 % of control (dose: 15.5 mg/kg/injection, schedule: Q01DX005 (ip), vehicle: Klucel (hydroxypropylcellulose) (HPC)); 106 % of control (dose: 31.0 mg/kg/injection, schedule: Q01DX005 (ip), vehicle: Klucel (hydroxypropylcellulose) (HPC)).

`Cc1c(COC(=O)NC(C)C)c(COC(=O)NC(C)C)c2n1CS(=O)(=O)C2`: the T/C was 159 % of control (dose: 25.0 mg/kg/injection, schedule: Q01DX005 (ip), vehicle: saline with Tween-80); 184 % of control and 188 % of control under setting [7]; 218 % of control under setting [8].

The values are drawn from PubChem BioAssay AID330 (DTP/NCI, 2004).
